Results taken from PubChem BioAssay (NCI).
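Following 48 hours of exposure in 96-well plates, responses at five concentrations were used to interpolate endpoints linearly. Abbreviation: GI50, concentration required for 50% inhibition of growth. TGI denotes the concentration required for complete inhibition of growth.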

Experiments:
Test in all cases: NCI tumour cell line growth inhibition, 48 h
NCI-H522 lung = tested on: NCI-H522 lung
LOX IMVI melanoma = tested on: LOX IMVI melanoma
KM12 colon = tested on: KM12 colon
U251 CNS = tested on: U251 CNS
SN12C renal = tested on: SN12C renal
NCI-H23 lung = tested on: NCI-H23 lung
A498 renal = tested on: A498 renal
RXF 393 renal = tested on: RXF 393 renal
SNB-19 CNS = tested on: SNB-19 CNS
HT29 colon = tested on: HT29 colon

Row | Compound | GI50 (NCI-H522 lung) | TGI (NCI-H522 lung) | GI50 (LOX IMVI melanoma) | TGI (LOX IMVI melanoma) | GI50 (KM12 colon) | TGI (KM12 colon) | GI50 (U251 CNS) | TGI (U251 CNS) | GI50 (SN12C renal) | TGI (SN12C renal) | GI50 (NCI-H23 lung) | TGI (NCI-H23 lung) | GI50 (A498 renal) | TGI (A498 renal) | GI50 (RXF 393 renal) | TGI (RXF 393 renal) | GI50 (SNB-19 CNS) | TGI (SNB-19 CNS) | GI50 (HT29 colon) | TGI (HT29 colon)
1 | C=CC1=C[C@@H]2[C@@H]3O[C@]4(CC[C@H](O4)[C@@H](C)C[C@@H](O)C3=O)C[C@H](O)C3=NCC[C@@]32CC1 | < 0.00333 µM | 0.00353 µM | < 0.00333 µM | < 0.00333 µM | < 0.00333 µM | 0.0061 µM | < 0.00333 µM | 0.39 µM | < 0.00333 µM | 0.011 µM | < 0.00333 µM | < 0.00333 µM | < 0.00333 µM | < 0.00333 µM | < 0.00333 µM | < 0.00333 µM | < 0.00333 µM | < 0.00333 µM | < 0.00333 µM | 
2 | OCC(O)C(OC1OC(CO)C(O)C(O)C1O)c1nn(-c2ccccc2)c2nc3cc(Cl)c(Cl)cc3cc12 (centres undefined) |  | > 100 µM |  | > 100 µM |  | > 100 µM |  | > 100 µM |  | > 100 µM |  | > 100 µM |  | > 100 µM |  | > 100 µM |  | > 100 µM |  | > 100 µM
3 | Cc1ccc(/C=C2/SC(Nc3nc(-c4nc(NC5=NC(=O)/C(=C\c6ccc(C)cc6)S5)sc4C)c(C)s3)=NC2=O)cc1 | 0.857 µM | 25.9 µM | 0.287 µM | 12.2 µM | 0.289 µM | 18.6 µM | 0.322 µM | 38.9 µM | 0.957 µM | 18.3 µM | 0.895 µM | 8.46 µM | 1.4 µM | 7.52 µM | 0.282 µM | 3.65 µM | 10.1 µM | > 50 µM | 3.62 µM | > 50 µM
4 | CC(=O)Nc1ccccc1C=C1c2ccccc2-c2ccccc21 |  | > 100 µM |  | > 100 µM |  | > 100 µM |  | 60.4 µM |  | 53.6 µM |  | > 100 µM |  | > 100 µM |  | 42.3 µM |  | 45.8 µM |  | > 100 µM
5 | NC(=O)c1cc([N+](=O)[O-])c(Cl)c([N+](=O)[O-])c1 | 1.94 µM | 3.57 µM | 1.86 µM | 3.7 µM | 4.69 µM | 16.3 µM | 2.31 µM | 5.61 µM | 1.8 µM | 3.57 µM | 2.78 µM | 8.32 µM | 13.8 µM | 26.8 µM | 1.69 µM | 3.11 µM | 15.3 µM | 29.5 µM | 2.58 µM | 5.51 µM
6 | Cn1c(=O)c(Oc2ccc(F)cc2F)cc2cnc(NC(CO)CO)nc21 | > 25 µM | > 25 µM | > 25 µM | > 25 µM | > 25 µM | > 25 µM | > 25 µM | > 25 µM | > 25 µM | > 25 µM | > 25 µM | > 25 µM | > 25 µM | > 25 µM | > 25 µM | > 25 µM | > 25 µM | > 25 µM | > 25 µM | > 25 µM
7 | N=c1c2c(-c3ccccc3)c(-c3ccccc3)n(Cc3ccccc3)c2ncn1CCCO | 0.756 µM | 3.46 µM | 0.5 µM | 2.77 µM | 1.01 µM | 14.3 µM | 0.704 µM | 13.3 µM | 1.99 µM | 19.6 µM | 4.32 µM | 24.3 µM | 3.3 µM | 19.7 µM | 0.443 µM | 2.5 µM | 2.21 µM | 21.3 µM | 0.363 µM | 3.77 µM
8 | CN(c1ccc(NC(=O)Nc2ccc(OC(F)(F)F)cc2)cc1)c1ccnc(Nc2cccc(S(N)(=O)=O)c2)n1 | 3.41 µM | 7.36 µM | 0.725 µM | 3.97 µM | 0.0157 µM | 3.99 µM | 3.07 µM | 6.64 µM | 2.27 µM | 11.5 µM | 2.15 µM | 6.25 µM | 1.15 µM | 3.37 µM | 2.13 µM | 6.04 µM | 5.49 µM | 14.3 µM | 1.35 µM | 5.95 µM
9 | COCC1N=C(c2cc(OC)c(OC)c(OC)c2-c2cc3c(cc2C2OCCCO2)OCO3)O[C@H]1c1ccccc1 (some centres undefined) |  | > 100 µM |  | > 100 µM |  | > 100 µM |  | > 100 µM |  | > 100 µM |  | > 100 µM |  | > 100 µM |  | > 100 µM |  | > 100 µM |  | > 100 µM
10 | Cn1ccnc1C(=O)/C=C/c1ccc(CC(=O)Nc2ccc(S(F)(F)(F)(F)F)cc2)cc1 | 3.43 µM | 6.91 µM | 1.19 µM | 3.34 µM | 2.04 µM | 4.7 µM | 0.898 µM | 3.07 µM | 2.93 µM | 7.17 µM | 2.37 µM | 4.82 µM | 3.12 µM | 6.14 µM | 2.67 µM | 5.21 µM | 2.23 µM | 4.82 µM | 3.25 µM | 7.2 µM
11 | Cc1cccc(NC(=O)c2cc3cc(N=Nc4ccccc4Cl)ccc3oc2=O)c1 |  | 56.8 µM |  | 27.4 µM |  | 48.4 µM |  | > 100 µM |  | > 100 µM |  | 59.5 µM |  | > 100 µM |  | 83.2 µM |  | > 100 µM |  | > 100 µM
12 | COc1ccn2c(C(C)=O)cc(C(=O)c3ccc4c(c3)Sc3ccccc3N4)c2c1 | 0.0321 µM | 0.248 µM | 0.15 µM | > 100 µM | 0.0874 µM | > 27.3 µM | 0.132 µM | > 100 µM | 0.33 µM | > 100 µM | 0.136 µM | > 100 µM | 0.064 µM | 0.251 µM | 0.228 µM | > 100 µM | 0.158 µM | > 100 µM | 0.0918 µM | 0.351 µM
13 | O=C1c2ccc3c4c5ccc(c24)C(=O)N1CCCOCCCCOCCCNCc1ccc(cc1)CNCCCOCCCCOCCCN(C3=O)C5=O | 0.854 µM | 1.79 µM | 0.797 µM | 1.52 µM | 0.896 µM | 2.06 µM | 0.832 µM | 1.64 µM | 0.816 µM | 1.53 µM | 0.93 µM | 1.81 µM | 7.89 µM | 15 µM | 0.764 µM | 1.57 µM | 0.991 µM | 2.27 µM | 0.956 µM | 2.36 µM
